Measurements as given in ChEMBL document CHEMBL3507680, “University of Dundee, Gates Library screen for HepG2 cell viability”.

Test: Human HepG2 cell viability assay in 384 well format
Format: toxicity, cell-based
Design: dose 125 nL, time 70.5 hour; concentration not given beside the values
Details: HepG2 cells, read-out: Inhibition

| SMILES | cytotoxicity at 70.5 h [%] |
| --- | --- |
| CCOc1ccc(C(=O)N(C)Cc2nccn2CC(F)(F)F)cc1 | -2.52 |
| O=C(c1n[nH]c(=O)c2ccccc12)N1CCCC1Cn1cccn1 (centres undefined) | -8.16 |
| Cc1cc(N2CCN(c3ccc(=O)[nH]n3)CC2)nc(-c2ccncc2)n1 | -5.53 |
| Cc1n[nH]c(C2CN(C(=O)c3cc(C4CC4)on3)CCO2)n1 (centres undefined) | 17 |
| O=C(NCCc1nnc2n1CCC2)NCC1(c2ccccc2F)CC1 | -6.03 |
| CC1CN(CC(=O)NC(=O)NCc2cccs2)CCN1CC(F)(F)F (centres undefined) | -11 |
| COc1cc(C(=O)N(C)Cc2nccn2CC(F)(F)F)ccc1C | 15.7 |
| COC(=O)c1ccoc1CN(C)Cc1cc(OC)c(OC)cc1C | -12.1 |
| CCc1n[nH]c(C2CN(C(=O)c3cc(C4CC4)on3)CCO2)n1 (centres undefined) | -5.69 |
| O=C(CN1CCCC1COc1ccccc1)NCc1ccccn1 (centres undefined) | -10.9 |
| Cc1cnn(CC2CCCN2C(=O)CCc2c(C)nc(C)[nH]c2=O)c1 (centres undefined) | -10.8 |
| Cc1cnn(CC2CCCN2CC(=O)NCc2ccccn2)c1 (centres undefined) | -3.32 |
| CCc1nc(CN2CCCC(N(C)CCc3cccs3)C2)no1 (centres undefined) | 21.1 |
| CN(CCc1ccccn1)C1CCCN(Cc2noc(C3CC3)n2)C1 (centres undefined) | -4.84 |
| CC(=O)N1CCN(CCNS(=O)(=O)c2cc(F)ccc2C)CC1 | 4.62 |
| O=C(CC1CCCO1)NCCc1ccc(Br)cc1F (centres undefined) | -5.5 |
| COc1ccc(CNCCc2ccn(-c3ccccc3)n2)cc1O | -8.7 |
| O=C(CCC1CCCO1)NCc1ccc(Br)cc1F (centres undefined) | 12.7 |
| CSCC(=O)NC1CCN(C(C)c2ccccc2)CC1 (centres undefined) | -6.02 |
| Cc1cc(C#N)ccc1S(=O)(=O)NCc1cnc(N(C)C)n1C | -5.78 |
| Cc1nn(C)c(C)c1CC(C)NC(=O)NCc1ccoc1C (centres undefined) | -4.68 |
| COc1ccccc1CC(C)(C)NC(=O)CC(F)(F)F | -11.8 |
| Cn1cc(CNC(=O)C2CCCN(Cc3cccc(F)c3)C2)cn1 (centres undefined) | -11.1 |
| O=C1N(CC2CC2)C(c2c[nH]nc2-c2cccnc2)NC12CCCC2 (centres undefined) | -12.7 |

| SMILES | cytotoxicity at 70.5 h [%] |
| --- | --- |
| CCN(Cc1nnnn1C1CC1)c1cc(C)ccc1C | -2.4 |
| CCc1nc(CN2CCC(C(=O)N(C)C)CC2)cs1 | 0.679 |
| CC(NCc1ccc(C(C)(C)C)cc1)c1ccc(S(C)(=O)=O)cc1 (centres undefined) | -8.09 |
| CC(NCc1ccc(F)cc1)c1ccc(S(C)(=O)=O)cc1 (centres undefined) | -7.76 |
| CCC(NCc1ccccc1)c1ccccc1OCC(=O)NC (centres undefined) | -6.53 |
| CCC(NCc1cccc(Cl)c1)c1ccccc1OCC(=O)NC (centres undefined) | -1.52 |
| CN(Cc1ccc(Cl)s1)C(=O)Nc1ccc(N(C)C)nc1 | -11.5 |
| Cc1cccc(CN2CCN(C(=O)c3cccnc3O)CC2)c1 | -4.88 |
| Cc1ccc(CCNC(=O)NCCCC(N)=O)c(C)c1 | 1.66 |
| Cc1cccc(CN2CCN(C(=O)c3ccc(C)[nH]c3=O)CC2)c1 | -7.34 |
| CCN(CC)C(=O)c1ccc(CNc2ncc(C#N)cc2Cl)cc1 | -7.7 |
| N#Cc1ccc(CNc2ncc(C#N)cc2Cl)cc1 | 0.2 |
| O=C1C(Sc2nc(=O)ccn2C2CC2)CCN1c1ccccc1F (centres undefined) | 2.14 |
| c1n[nH]cc1CCCN1CCC(OC2CCCCC2)CC1 | 0.00847 |
| COCCCC(=O)N1CC(=O)Nc2cc(Br)ccc21 | -3.54 |
| Cc1nc(NC(=O)COCC(F)(F)F)ccc1Br | 1.69 |
| CCC(CNS(C)(=O)=O)Oc1ccccc1C (centres undefined) | -3.25 |
| Cn1cc(CNCCNC(=O)Cc2ccccc2)c(-c2cccnc2)n1 | -5.62 |
| Cn1cc(CNCCc2cccnc2)c(-c2cccnc2)n1 | 22.8 |
| CNC(=O)CCc1cccc(OC2CCCC2)c1 | -12.2 |
| CCN(C(=O)CN1CCC(c2ccccc2)C1)C1CC1 (centres undefined) | 0.241 |
| O=C1CCCN1c1cccc(CNCc2cc(F)ccc2F)c1 | -6.99 |
| CCC(C)c1cc(C(=O)N(CC(=O)NC)c2cccc(F)c2)on1 (centres undefined) | 20.8 |
| CSc1ncccc1C(=O)NCC(c1ccco1)N(C)C (centres undefined) | 4.37 |

| SMILES | cytotoxicity at 70.5 h [%] |
| --- | --- |
| Cc1cc(C(=O)CN2CCN(c3nccs3)CC2)c(C)n1C1CC1 | -10.5 |
| O=C(c1ccc(Sc2ccccn2)cc1)N1CCCSCC1 | -10.8 |
| COc1ccc(OC)c(-n2nnnc2SCC2CCCCO2)c1 (centres undefined) | -6.66 |
| Cc1cc(C)n(C2CN(c3ncnc4c3CCC4)C2)n1 | -10.3 |
| Cc1noc(CNC(=O)C(C)(C)NC(=O)OC(C)(C)C)n1 | 18.7 |
| Cc1cc(NCc2cccc(C#N)c2)ccc1C(N)=O | 2.79 |
| CCc1cccc(NC(=O)CNc2ccccc2OCCC(=O)OC)c1 | -0.0313 |
| CC(Cn1cncn1)NC(=O)NCc1csc(N(C)C)n1 (centres undefined) | -8.98 |
| CNC(=O)CN(C(=O)c1cc(C(C)C)no1)c1cccc(F)c1 | 27.9 |
| CCC1CCCN(S(=O)(=O)c2cnc3onc(C)c3c2)C1 (centres undefined) | -4.44 |
| CCN1CCCN(S(=O)(=O)c2cnc3onc(C)c3c2)CC1 | -7.12 |
| CC(C)(CCS(C)(=O)=O)CNC(=O)NC1CCCCC1(C)C (centres undefined) | 28 |
| CC(C)(CCS(C)(=O)=O)CNC(=O)NC1CCCC1(C)C (centres undefined) | -6.64 |
| CS(=O)(=O)CCCNCc1c(Cl)cccc1N1CCCC1 | -10.5 |
| Cc1cc(NCc2cccc(C#N)c2)ccc1Br | -7.27 |
| Cc1cc(NCc2cccc(C#N)c2)ccc1C(=O)N(C)C | -9.77 |
| CC(C)N(Cc1ccc(Cl)c(Cl)c1)C(=O)CCn1cncn1 | -2.22 |
| O=C(c1cnccn1)N(CCO)Cc1cc(Br)ccc1F | -5.51 |
| CN1CCC(C)(CNC(=O)c2ccc(SCc3cccnc3)cc2)CC1 | -9.14 |
| CN1CCN(c2cccc(Cl)c2CNCCS(C)(=O)=O)CC1 | -8.06 |
| NC(=O)CCNCc1c(Cl)cccc1N1CCCC1 | -6.13 |
| Cc1ccc(CNC(=O)CCN2CCN(c3ccccn3)CC2)n1C | 21.9 |
| COCCNC(C)c1ccc(-c2cccnc2)cc1 (centres undefined) | 0.821 |
| CN(C(=O)NCCCNc1ccccn1)C1CCS(=O)(=O)C1 (centres undefined) | -10.6 |

| SMILES | cytotoxicity at 70.5 h [%] |
| --- | --- |
| O=C(NCC1CCS(=O)(=O)C1)Nc1ccccn1 (centres undefined) | 3.81 |
| O=C(Nc1ccc2c(c1)OC1(CCCCC1)O2)c1ccc(=O)[nH]n1 | 0.889 |
| CC1CN(c2ccc(CNC(=O)NCCO)cn2)CCO1 (centres undefined) | -8.22 |
| N#Cc1cc(F)c(NCCc2ccc(F)cc2)c(F)c1 | -2.9 |
| CN(C)c1ncc(CNC(=O)Nc2ccc(C(F)(F)F)cc2)n1C | -2.76 |
| N#Cc1cc(F)c(NCCc2cccnc2)c(F)c1 | -4.91 |
| CC(C)(C)C(=O)c1ccsc1NC(=O)CCNC(=O)c1ccco1 | -5.13 |
| CN(C)C(C(=O)Nc1nccs1)c1c(F)cccc1Cl (centres undefined) | -0.246 |
| CN(c1ccc(CNc2c(Cl)cccc2C#N)cc1)S(C)(=O)=O | -1.4 |
| Cc1c(C(=O)NC2CC(C)(C)NC(C)(C)C2)cnn1-c1ccc(F)cc1 | -2.72 |
| CN(C1CCCC1)C(C)(C)C(=O)NCCS(C)(=O)=O | 2.52 |
| Cc1cc(CNc2ccnn2CC(C)C)ccc1-n1cncn1 | 7.96 |
| CCN(Cc1noc(CC(C)C)n1)Cc1ccccc1Cl | 1.69 |
| Cc1ccc2cc(C(=O)N3CCN(C(=O)N(C)C)CC3)ccc2n1 | -2.65 |
| CCc1ccc(C(=O)NCc2ccnc(C)n2)cc1 | -8.72 |
| O=C(c1cnc2[nH]c(=O)[nH]c(=O)c2c1)N1CCCC1C1CCCC1 (centres undefined) | -11.9 |
| Cn1c(=O)[nH]c(=O)c2cc(C(=O)N3CCCC3C3CCCC3)cnc21 (centres undefined) | 22.8 |
| CCN(c1ccc(C(=O)NCc2ccnc(C)n2)cc1)C(C)C | -8.68 |
| O=C(c1cnc2[nH]c(=O)[nH]c(=O)c2c1)N1CCCC1C1CCCCC1 (centres undefined) | -5.02 |
| CC1CN(Cc2cccc(C#N)c2)CCN1c1ccc2nncn2n1 (centres undefined) | -5.84 |
| CC1CN(c2ccc(C#N)cn2)CCN1c1ccc2nncn2n1 (centres undefined) | -4.47 |
| O=C1CC(NS(=O)(=O)c2ccccc2)CN1Cc1ccccc1 (centres undefined) | -5.96 |
| CCOc1ccc(C#N)cc1NC(=O)N1CCOC(C(N)=O)C1 (centres undefined) | 23 |
| N#Cc1ccc(N2CCN(c3ccc4nncn4n3)CC2)nc1 | -2 |

| SMILES | cytotoxicity at 70.5 h [%] |
| --- | --- |
| c1ccc2[nH]c(C3CCN(Cc4nnc(C5CC5)o4)CC3)nc2c1 | -5.81 |
| CC(C)(CNc1ccc(C#N)c(C(F)(F)F)c1)C(N)=O | 2.06 |
| O=C(CN1CCSCC1c1ccccc1)N1CCOCC1 (centres undefined) | -3.64 |
| Cc1nn(C)c(C)c1CCC(=O)Nc1cn(C)c(=O)n(C)c1=O | -1.93 |
| CN(CC(F)(F)F)C(=O)CNC(=O)Cc1ccccc1O | 5.05 |
| Cc1oc(C(=O)O)cc1S(=O)(=O)Nc1cccc(-n2nccc2C)c1 | -5.02 |
| CC(C)(C)NC(=O)CNc1ccc(C#N)c(C(F)(F)F)c1 | -5.25 |
| CN(CC(F)(F)F)C(=O)CNC(=O)Cc1cccc(O)c1 | 1.12 |
| Cc1cc(CCC(=O)N2CCOCC2)ccc1Br | -5.28 |
| CC(NCc1cccc(S(=O)(=O)N(C)C)c1)c1ccccn1 (centres undefined) | -6.92 |
| CN(CC(F)(F)F)C(=O)CNC(=O)Cc1ccc(O)cc1Cl | -9.7 |
| Cc1ccc(CCC(=O)N2CCOCC2)cc1Cl | -6.51 |
| COC1CCCN(C(=O)c2sc(CC(C)C)nc2C)C1 (centres undefined) | -6.5 |
| CSC(C)(C)CNC(=O)NCC[S+]([O-])c1ccccc1F (centres undefined) | -9.35 |
| CN(C)C(=O)CC1CCOc2ccccc21 (centres undefined) | 0.971 |
| c1ccc(-c2noc(C3CCN(CCCn4cncn4)CC3)n2)cc1 | 0.0875 |
| CC(Cn1cccn1)NCc1csc(-c2ccccc2)n1 (centres undefined) | -3.84 |
| CC(C)c1nnc2n1CCN(C(=O)c1ccc3c(c1)NC(=O)CO3)C2 | -2.96 |
| c1ccc(-c2noc(C3CCN(CCn4cccn4)CC3)n2)cc1 | 12.8 |
| COCCN1CCC(c2nc3ccccc3[nH]2)CC1 | -11 |
| Cc1cnn(CC2CCCN2C(=O)Cc2cn3ccsc3n2)c1 (centres undefined) | -6.38 |
| CNC(=O)Cc1noc(Cc2cccc(Br)c2)n1 | -9.45 |
| CCOCc1ccccc1NC(=O)NC1CCN(c2ncccn2)CC1 | -6.67 |
